From patent US5118599A, “Yellow couplers for photographic elements and processes” (Eastman Kodak Company, priority 1991, dated 1992)

What was measured:
pKa Measurements = type: physicochemical; settings: Table 1
Text: The structural preference of the coupler for the axial conformation has important implications for […]. Due largely to the ability of the carbonyl oxygen to enolize and form H-bonds with the oxygen atoms of the dioxane ring, the pKa of the coupler is generally 1-2 units lower than pivaloyl acetanilide-based couplers. A lower pKa value means that the coupler ionizes more readily at pH 10, and results in higher coupling activity with oxidized color developer, as shown in Table 1.

[1] = Photographic single layer element: Dmax, Dmin, gamma and λmax after color development
Protocol: Single layer photographic elements were prepared by coating a cellulose acetate-butyrate film support with a photosensitive layer containing a silver bromide emulsion at 70.2 and 140.4 mg/ft^2 for 2 and 4 equivalent couplers, respectively, gelatin at 350 mg/ft^2 and an image coupler (0.20 mmol/ft^2) dispersed in half its weight of dibutyl phthalate. The photosensitive layer was overcoated with a layer containing gelatin at 250 mg/ft^2 and bis vinylsulfonyl methyl ether hardener at 2.0 weight percent based on total gel.
Samples of each element were exposed imagewise through a stepped density test object and processed at 100° F. employing the following color developing solution, then stopped with a low pH bath, bleached, fixed, washed and dried to produce stepped colored images.
Color Developer Solution (2')
4-Amino-3-methyl-N-ethyl 3.55 g
Water to make 1 liter, pH 10.0
Densitometry in the appropriate color maximum density (Dmin and Dmax) and gamma defined as the maximum slope between any two adjacent density points.

[2] = Table 4, color developer pH 10.0

SMILES	pKa (pKa Measurements)	λmax ([1]; Table 3, D99, pH 10.0, KS-2)	λmax [1, 2]
CCC(C)(C)c1ccc(OCCCC(=O)Nc2ccc(Cl)c(NC(=O)CC(=O)C3(C)COC(C)(C)OC3)c2)c(C(C)(C)CC)c1 [Coupler D-0]	8.51		
CCCCCCCCCCCCCCCCS(=O)(=O)Nc1ccc(OC)c(NC(=O)CC(=O)C2(C)COC(C)(C)OC2)c1 [Coupler D-2]		446	
CCC(C)(C)c1ccc(OCCCC(=O)Nc2ccc(OC)c(NC(=O)CC(=O)C3(C)COCOC3)c2)c(C(C)(C)CC)c1 [Coupler D-3]			446 nm
CCCCCCCCCCCCCCCCS(=O)(=O)Nc1ccc(Cl)c(NC(=O)CC(=O)C2(C)COCOC2)c1 [Coupler D-4]	8.42	454	454 nm
CCC(C)(C)c1ccc(OCCCC(=O)Nc2ccc(Cl)c(NC(=O)CC(=O)C3(C)COCOC3)c2)c(C(C)(C)CC)c1 [Coupler D-5]		452	452 nm
CCOC1C(=O)N(C(C(=O)Nc2cc(NC(=O)CCCOc3ccc(C(C)(C)CC)cc3C(C)(C)CC)ccc2OC)C(=O)C2(C)COC(C)(C)OC2)C(=O)N1Cc1ccccc1 [Coupler D-8]			445 nm
CCCCCCCCCCCCCCCCS(=O)(=O)Nc1ccc(Cl)c(NC(=O)C(Oc2ccc(S(=O)(=O)c3ccc(OCc4ccccc4)cc3)cc2)C(=O)C(C)(C)C)c1 (stereo not drawn) [P-I, reference compound]			452 nm
CCC(C)(C)c1ccc(OCCCC(=O)Nc2ccc(Cl)c(NC(=O)C(Oc3ccc(S(=O)(=O)c4ccc(OCc5ccccc5)cc4)cc3)C(=O)C(C)(C)C)c2)c(C(C)(C)CC)c1 (stereo not drawn) [P-III, reference compound]	8.76		450 nm
CCCCCCCCCCCCCCCCS(=O)(=O)Nc1ccc(Cl)c(NC(=O)CC(=O)C(C)(C)C)c1 [P-V, reference compound]		449	449 nm
CCC(C)(C)c1ccc(OCCCC(=O)Nc2ccc(Cl)c(NC(=O)CC(=O)C(C)(C)C)c2)c(C(C)(C)CC)c1 [P-VI, reference compound]	10.01	447	447 nm

Other lines, results leading:

pKa (pKa Measurements)	λmax ([1]; Table 3, D99, pH 10.0, KS-2)	λmax [1, 2]	SMILES
		445 nm	CCC(C)(C)c1ccc(OCCCC(=O)Nc2ccc(OC)c(NC(=O)C(Oc3ccc(S(=O)(=O)c4ccc(O)cc4)cc3)C(=O)C3(C)COC(C)(C)OC3)c2)c(C(C)(C)CC)c1 [Coupler D-7]
7.55		453 nm	CCC(C)(C)c1ccc(OCCCC(=O)Nc2ccc(Cl)c(NC(=O)C(Oc3ccc(S(=O)(=O)c4ccc(O)cc4)cc3)C(=O)C3(C)COCOC3)c2)c(C(C)(C)CC)c1 [Coupler D-10]
7.24			CCC(C)(C)c1ccc(OCCCC(=O)Nc2ccc(Cl)c(NC(=O)C(Oc3ccc(S(=O)(=O)c4ccc(OCc5ccccc5)cc4)cc3)C(=O)C3(C)COCOC3)c2)c(C(C)(C)CC)c1 [Coupler D-11]
		454 nm	CCC(C)(C)c1ccc(OCCCC(=O)Nc2cccc(NC(=O)C(Oc3ccc(S(=O)(=O)c4ccc(O)cc4)cc3)C(=O)C3(C)COCOC3)c2)c(C(C)(C)CC)c1 [Coupler D-12]
		452 nm	CCC(C)(C)c1ccc(OCCCC(=O)Nc2ccc(C)c(NC(=O)C(Oc3ccc(S(=O)(=O)c4ccc(O)cc4)cc3)C(=O)C3(C)COCOC3)c2)c(C(C)(C)CC)c1 [Coupler D-13]
		448 nm	CCC(C)(C)c1ccc(OCCCC(=O)Nc2ccc(OC)c(NC(=O)C(Oc3ccc(S(=O)(=O)c4ccc(O)cc4)cc3)C(=O)C3(C)COCOC3)c2)c(C(C)(C)CC)c1 [Coupler D-14]
